One compound from patent US5985824A, “Methods and compositions for treating cystic fibrosis” (priority 1997, dated 1999) can be followed below.

Each structure is given as a SMILES string. Entries after “also recorded” stand apart in the source; their conditions may differ.

Common to all, as to type: cell-based
In data set [1] the test system is ΔF508-CFTR (C127-ΔF508-low cells). In words: immunoprecipitation analysis for mature band C-CFTR in C127-ΔF508-low cells. The following applies: DSG 10 to 100 μg/ml, 48 to 72 h. From the text:
Detailed procedures for preparing cell lysates, immunoprecipitation, phosphorylation of CFTR using protein kinase A and [γ^32 P]ATP, and polyacrylamide gel electrophoresis have all been described previously (Cheng et al., (1995), supra.; Marshall et al., supra.).
C127-ΔF508-low (mouse mammary tumor) is a recombinant cell line stably transfected with the cDNA encoding the mutant ΔF508-CFTR (Cheng et al. (1995), supra.; Marshall et al. (1994), J. Biol. Chem. 269: 2987-2995). […] C127-mock is a cell line that has been stably transfected with the backbone of the expression vector used to generate C127-ΔF508-low (Cheng et al. (1995), supra.). LLCPK1 -ΔF508 (pig kidney epithelial) is a recombinant cell line stably expressing low levels of the mutant ΔF508-CFTR protein (Marshall et al., supra.). The details of the generation, characterization and routine propagation of these cell lines has been described (Cheng et al. (1995), supra.; Marshall et al., supra.).
To test whether treatment with DSG may interfere with the ability of hsp70 to retain ΔF508-CFTR in the ER, recombinant C127 cells expressing ΔF508-CFTR were seeded onto glass coverslips and were exposed to DSG (10 to 100 μg/ml) (Bristol Myers Squibb, Seattle, Wa.) for 48 to 72 h. Analysis for evidence of mature band C-CFTR (Cheng et al. (1990), supra.) which would be indicative of processing of ΔF508-CFTR in the Golgi was performed. […]

Data set [2] in a line: toxicity of DSG to cells in culture. The following applies: up to 72 h; read-out: concentrations toxic to most of the cell types tested. As for the experimental part:
Cells were treated with up to 100 μg/ml of DSG for up to 72 h. Concentrations of DSG >50 μg/ml were toxic to most of the cell types tested. Since DSG is modified by polyamine oxidase present in fetal bovine serum (Tepper et al., supra.), cells were routinely replenished with fresh medium containing DSG and aminoguanidine every 24 h. As a control in some experiments, C127 cells were also treated with 5 mM sodium butyrate for 24 h. to enhance expression of ΔF508-CFTR (Cheng et al. (1995), supra.). As another control, cells were cultured at 23° C. for 24 to 48 h. to facilitate folding of the mutant ΔF508-CFTR at the ER.
CFT1 and JME/CF15 are two immortalized human CF airway epitheliavarill lines which contain the ΔF508 variant (Jefferson et al. (1990), Am. J. Physiol. 259: L496-L505; Yankaskas et al., (1993), Am. J. Physiol. 264: C1219-C1230). Cells were treated with up to 100 μg/ml of DSG for up to 72 h. Concentrations of DSG >50 μg/ml were toxic to most of the cell types tested. Since DSG is modified by polyamine oxidase present in fetal bovine serum (Tepper et al., supra.), cells were routinely replenished with fresh medium containing DSG and aminoguanidine every 24 h. As a control in some experiments, cells were cultured at 23° C. for 24 to 48 h. to facilitate folding of the mutant ΔF508-CFTR at the ER. […]

For data set [3], the system named is ΔF508-CFTR (C127-ΔF508-low cells). In words: SPQ halide efflux assay, cAMP-stimulated Cl- channel activity, C127-ΔF508-low cells. The following applies: FIG. 1E.

With `N=C(N)NCCCCCCC(=O)NC(O)C(=O)NCCCCNCCCN` (stereo not drawn) [DSG, deoxyspergualin], in data set [1], the “mature band C form of CFTR” value is “the presence of any mature band C-form of CFTR could not be demonstrated; also recorded: no discernible evidence of the mature band C form of CFTR”. Also, in data set [2], the MCC at 72 h is greater than 50 µg/mL. For the same compound, in data set [3], the “percentage of mature CFTR produced from CFTR-ΔF508 upon exposure to reduced temperatures” value is given as “increases upon exposure to reduced temperatures”.
